Here are results for 29 compounds from patent publication US20190119282A1, “IMIDAZOPYRIDAZINES USEFUL AS INHIBITORS OF THE PAR-2 SIGNALING PATHWAY” (Vertex Pharmaceuticals Incorporated, priority 2013, published 2019).

Test [1] concerns the target T1, PAR2 (HT-29 cells, SLIGKV activation) (Homo sapiens, UniProt P55085).
T1 construct: host or cells: HT-29 cells
T1 sequence (P55085 26-397): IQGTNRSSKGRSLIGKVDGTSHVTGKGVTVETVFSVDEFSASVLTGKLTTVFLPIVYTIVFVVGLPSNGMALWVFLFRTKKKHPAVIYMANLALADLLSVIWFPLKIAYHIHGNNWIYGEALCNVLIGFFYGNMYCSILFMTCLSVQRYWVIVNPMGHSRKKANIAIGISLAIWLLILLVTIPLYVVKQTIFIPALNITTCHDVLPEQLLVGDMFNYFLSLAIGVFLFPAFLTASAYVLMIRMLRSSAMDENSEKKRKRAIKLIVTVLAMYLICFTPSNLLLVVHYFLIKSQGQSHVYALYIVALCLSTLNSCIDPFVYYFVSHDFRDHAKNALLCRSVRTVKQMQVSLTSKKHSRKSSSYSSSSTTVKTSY
In words: Ca FLIPR TETRA assay, ANTAGONIST mode, stimulation with 8 μM SLIGKV. Type of test: cell-based. The note with it: HT-29 cells, antagonist mode, stimulation with 8 μM SLIGKV. An outline of the steps: (§1)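 HT-29 cells in 1% FBS/McCoy's overnight, loaded with Calcium 5 dye; compounds added and read first for intrinsic Ca2+ activation, then incubated 30 min at r.t. Antagonism read on FLIPR Tetra after stimulation with final 8 μM SLIGKV, 3.1 U/mL trypsin, 1 U/mL thrombin or 0.6 μM UTP.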

Test [2] has as its system UTP-stimulated Ca2+ response in HT-29 cells. The test can be described thus: Ca FLIPR TETRA assay, ANTAGONIST mode, stimulation with 0.6 μM UTP. The note with it: Homo sapiens; HT-29 cells, antagonist mode, stimulation with 0.6 μM UTP. Type of test: cell-based, human. An outline of the steps:
as §1

The test system of test [3] is Thrombin-stimulated Ca2+ response in HT-29 cells. In words: Ca FLIPR TETRA assay, ANTAGONIST mode, stimulation with 1 U/mL Thrombin. Type of test: cell-based, human. To be noted: Homo sapiens; HT-29 cells, antagonist mode, stimulation with 1 U/mL Thrombin. The essentials: as §1
Test [4] addresses T2, PAR2 (HT-29 cells, trypsin activation) (Homo sapiens, UniProt P55085).
T2 construct: host or cells: HT-29 cells
T2 sequence (P55085 26-397): T1 sequence (P55085 26-397)
In words: Ca FLIPR TETRA assay, ANTAGONIST mode, stimulation with 3.1 U/mL trypsin. To be noted: HT-29 cells, antagonist mode, stimulation with 3.1 U/mL trypsin. Type of test: cell-based. An outline of the steps:
as §1

`CC(C)(C)c1cc(-c2ccc(Cl)c(F)c2)nn2cc(C(=O)N3CCN(C(=O)[C@H]4C[C@@](C)(O)C4)CC3(C)C)nc12` [Compound I-469]: the IC50 (commonly the concentration needed to halve the response being measured) amounted to 0.0002 µM in test [1], 11 µM in test [2], 8.84 µM in test [3] and 0.0002 µM in test [4].

As for `Cc1cc(-c2cc(C(C)C)c3nc(C(=O)N4CCN(CO)C(=O)C4(C)C)cn3n2)ccc1F` [Compound I-470], the IC50 was 0.0257 µM in test [1], above 1 µM in test [2], above 1 µM in test [3] and 0.0317 µM in test [4].

Turning to `CC(C)(C)c1cc(-c2ccc(F)cc2)nn2cc(C(=O)N3CCN(c4cc[nH]n4)C(=O)C3(C)C)nc12` [Compound I-471], the IC50 is 0.0008 µM in test [1], above 1 µM in test [2], 0.905 µM in test [3] and 0.0016 µM in test [4].

As for `CC(C)(C)c1cc(-c2ccc(F)cc2F)nn2cc(C(=O)N3CCNC(=O)C3(C)C)nc12` [Compound I-472], the concentration for half-maximal inhibition (IC50) is 0.0062 µM in test [1], 0.82 µM in test [2], above 1 µM in test [3] and 0.013 µM in test [4].

Turning to `CC(C)(C)c1cc(-c2ccccc2F)nn2cc(C(=O)N3CCNC(=O)C3(C)C)nc12` [Compound I-473], the IC50 in test [1] was 0.015 µM; in test [2], 0.39 µM; in test [3], 0.475 µM; in test [4], 0.0255 µM.

Turning to `CC(C)(C)c1cc(C2CCC(F)(F)CC2)nn2cc(C(=O)N3CCN(c4cc[nH]n4)C(=O)C3(C)C)nc12` [Compound I-474], the IC50 is 0.0024 µM in test [1], above 1 µM in test [2], above 1 µM in test [3] and 0.02 µM in test [4].

On to `Cc1n[nH]c(C(=O)N2CCN(C(=O)c3cn4nc(-c5ccc(F)cc5)cc(C(C)C)c4n3)C(C)(C)C2)n1` [Compound I-475], for which the IC50 in test [1] stood at 0.0038 µM; in test [2], 13.7 µM; in test [3] it was 10.3 µM; in test [4], 0.0071 µM.

Regarding `CC(C)c1cc(-c2ccc(F)c(C3CC3)c2)nn2cc(C(=O)N3CCNC(=O)C3(C)C)nc12` [Compound I-476], the IC50 in test [1] was 0.66 µM; in test [2], above 1 µM; in test [3] it was above 1 µM; in test [4] it was 0.965 µM.

As to `CC(C)c1cc(-c2ccc(F)cc2F)nn2cc(C(=O)N3CCNC(=O)C3(C)C)nc12` [Compound I-477], the IC50 in test [1] was 0.043 µM; in test [2] it was above 1 µM; in test [3] it was above 1 µM; in test [4], 0.093 µM.

Turning to `CC(C)c1cc(-c2ccccc2F)nn2cc(C(=O)N3CCNC(=O)C3(C)C)nc12` [Compound I-479], the IC50 is 0.155 µM in test [1], above 1 µM in test [2], above 1 µM in test [3] and 0.25 µM in test [4].

Turning to `CC(C)c1cc(-c2cccc(F)c2)nn2cc(C(=O)N3CCNC(=O)C3(C)C)nc12` [Compound I-480], the IC50 in test [1] was 0.02 µM; in test [2], above 1 µM; in test [3], above 1 µM; in test [4], 0.06 µM.

In the case of `Cc1nc(C(=O)N2CCN(C(=O)c3cn4nc(-c5ccc(F)cc5)cc(C(C)(C)C)c4n3)C(C)(C)C2)n(COP(=O)(O)O)n1` [Compound I-481], the IC50 is 0.0472 µM in test [1], above 1 µM in test [2], above 1 µM in test [3] and 0.0445 µM in test [4].

On to `CC(C)c1cc(-c2ccc(F)c(Cl)c2)nn2cc(C(=O)N3CCN(C(=O)[C@H]4C[C@@](C)(O)C4)CC3(C)C)nc12` [Compound I-482], for which the IC50 stood at 0.0027 µM in test [1], 6.35 µM in test [2], 2.7 µM in test [3] and 0.0027 µM in test [4].

Regarding `Cc1nc(C(=O)N2CCN(C(=O)c3cn4nc(-c5ccc(F)c(Cl)c5)cc(C(C)C)c4n3)C(C)(C)C2)n[nH]1` [Compound I-483], the IC50 in test [1] worked out at 0.0025 µM; in test [2], 6.8 µM; in test [3], 6.9 µM; in test [4], 0.0043 µM.

Consider `Cc1nc(C(=O)N2CCN(C(=O)c3cn4nc(-c5ccc(F)cc5)cc(C(C)(C)C)c4n3)C(C)(C)C2)nn1COP(=O)(O)O` [Compound I-485], for which the IC50 in test [1] is 0.097 µM; in test [2], above 1 µM; in test [3], above 1 µM; in test [4] it was 0.235 µM.

Consider `CC(C)(C)c1cc(-c2ccc(F)c(Cl)c2)nn2cc(C(=O)N3CCN(C(=O)C4CC(C(=O)O)C4)CC3(C)C)nc12` (centres unmarked) [Compound I-486], for which the IC50 in test [1] worked out at 0.0017 µM; in test [2], 2.18 µM; in test [3], 4.15 µM; in test [4], 0.0021 µM.

For the compound `CC(C)(C)c1cc(-c2ccc(F)c(Cl)c2)nn2cc(C(=O)N3CCN(C(=O)[C@H]4CC[C@@H](C(=O)O)CC4)CC3(C)C)nc12` [Compound I-487], the IC50 in test [1] was 0.0003 µM; in test [2] it was above 1 µM; in test [3], above 1 µM; in test [4], 0.0003 µM.

For `CC(C)(C)c1cc(-c2ccc(F)c(Cl)c2)nn2cc(C(=O)N3CCN(C(=O)[C@H]4CC[C@H](C(=O)O)CC4)CC3(C)C)nc12` [Compound I-488], the IC50 in test [1] is 0.0042 µM; in test [2], above 1 µM; in test [3], above 1 µM; in test [4], 0.0042 µM.

Take `CC(C)(C)c1cc(-c2ccc(Cl)cc2)nn2cc(C(=O)N3CCN(C(=O)C4CC(C(=O)O)C4)CC3(C)C)nc12` (centres unmarked) [Compound I-489]: the IC50 amounted to 0.001 µM in test [1], 4.1 µM in test [2], 8.6 µM in test [3] and 0.0009 µM in test [4].

With `CC(C)(C)c1cc(-c2ccc(Cl)cc2)nn2cc(C(=O)N3CCN(C(=O)[C@H]4CC[C@@H](C(=O)O)CC4)CC3(C)C)nc12` [Compound I-490], the IC50 in test [1] was 0.0001 µM; in test [2], above 1 µM; in test [3], above 1 µM; in test [4] it was 0.0002 µM.

As to `CC(C)(C)c1cc(-c2ccc(Cl)cc2)nn2cc(C(=O)N3CCN(C(=O)[C@H]4CC[C@H](C(=O)O)CC4)CC3(C)C)nc12` [Compound I-491], the IC50 in test [1] was 0.0024 µM; in test [2], above 1 µM; in test [3] it was above 1 µM; in test [4], 0.0032 µM.

With `CC(C)(C)c1cc(-c2ccc(F)cc2)nn2cc(C(=O)N3CCN(C(=O)C4CC(C(=O)O)C4)CC3(C)C)nc12` (centres unmarked) [Compound I-492], the IC50 came to 0.004 µM in test [1], 0.69 µM in test [2], 0.82 µM in test [3] and 0.0056 µM in test [4].

For `CC(C)(C)c1cc(-c2ccc(F)cc2)nn2cc(C(=O)N3CCN(C(=O)[C@H]4CC[C@@H](C(=O)O)CC4)CC3(C)C)nc12` [Compound I-493, (1S,4S)-4-(4-(8-(tert-butyl)-6-(4-fluorophenyl)imidazo[1,2-b]pyridazine-2-carbonyl)-3,3-dimethylpiperazine-1-carbonyl)cyclohexane-1-carboxylic acid], the IC50 in test [1] was determined as 0.0005 µM; in test [2] it was 0.44 µM; in test [3], 0.76 µM; in test [4], 0.0005 µM.

As to `CC(C)(C)c1cc(-c2ccc(F)cc2)nn2cc(C(=O)N3CCN(C(=O)[C@H]4CC[C@H](C(=O)O)CC4)CC3(C)C)nc12` [Compound I-494, (1R,4R)-4-(4-(8-(tert-butyl)-6-(4-fluorophenyl)imidazo[1,2-b]pyridazine-2-carbonyl)-3,3-dimethylpiperazine-1-carbonyl)cyclohexane-1-carboxylic acid], the IC50 in test [1] was 0.0124 µM; in test [2] it was above 1 µM; in test [3], above 1 µM; in test [4], 0.0139 µM.

For the compound `CC(C)c1cc(-c2ccc(F)c(Cl)c2)nn2cc(C(=O)N3CCN(C(=O)[C@H]4CC[C@@H](C(=O)O)CC4)CC3(C)C)nc12` [Compound I-495], the IC50 was 0.0041 µM in test [1], 11.1 µM in test [2], 21.5 µM in test [3] and 0.005 µM in test [4].

In the case of `CC(C)c1cc(-c2ccc(F)c(Cl)c2)nn2cc(C(=O)N3CCN(C(=O)[C@H]4CC[C@H](C(=O)O)CC4)CC3(C)C)nc12` [Compound I-496], the 50% inhibitory concentration (IC50) in test [1] is 0.0553 µM; in test [2] it was above 1 µM; in test [3], above 1 µM; in test [4], 0.101 µM.

For the compound `CC(C)c1cc(-c2ccc(F)c(Cl)c2)nn2cc(C(=O)N3CCNCC3(C)C)nc12` [Compound I-497], the IC50 in test [1] was 0.405 µM; in test [2], above 1 µM; in test [3], above 1 µM; in test [4], 0.27 µM.

On to `CC(C)c1cc(-c2ccc(F)c(Cl)c2)nn2cc(C(=O)N3CCN(C(=O)[C@H]4C[C@@H](O)C4)CC3(C)C)nc12` [Compound I-498], for which the IC50 in test [1] is 0.0056 µM; in test [2], above 1 µM; in test [3], above 1 µM; in test [4] it was 0.0074 µM.

Take `COC1CC(C(=O)N2CCN(C(=O)c3cn4nc(-c5ccc(F)c(Cl)c5)cc(C(C)C)c4n3)C(C)(C)C2)C1` (centres unmarked) [Compound I-499]: the IC50 in test [1] is 0.0083 µM; in test [2] it was above 1 µM; in test [3], above 1 µM; in test [4], 0.0096 µM.
